Data published in patent US9701662B2, “Herbicidal compounds” (Syngenta Participations AG, priority 2014, dated 2017).

Experiments:
Type in all cases: in vivo
[1] = test system: Amaranthus retoflexus (AMARE); assay: Post-emergence glasshouse herbicide test; conditions: post-emergence (sprayed after 8 days cultivation), 1000 g/h, evaluated after 13 days, five point scale
Procedure: (§1) Seeds of a variety of test species are sown in standard soil in pots (Lolium perenne (LOLPE), Solanum nigrum (SOLNI), Amaranthus retoflexus (AMARE), Setaria faberi (SETFA), Echinochloa crus-galli (ECHCG), Ipomoea hederacea (IPOHE)). After cultivation for one day (pre-emergence) or after 8 days cultivation (post-emergence) under controlled conditions in a glasshouse (at 24/16° C., day/night; 14 hours light; 65% humidity), the plants are sprayed with an aqueous spray solution derived from the formulation of the technical active ingredient in acetone/water (50:50) solution containing 0.5% Tween 20 (polyoxyethelyene sorbitan monolaurate, CAS RN 9005-64-5). Compounds are applied at 1000 g/h. The test plants are then grown in a glasshouse under controlled conditions in a glasshouse (at 24/16° C., day/night; 14 hours light; 65% humidity) and watered twice daily. After 13 days for pre and post-emergence, the test is evaluated for the percentage damage caused to the plant. The biological activities are shown in the following table on a five point scale (5=80-100%; 4=60-79%; 3=40-59%; 2=20-39%; 1=0-19%).

[2] = test system: Echinochloa crus-galli (ECHCG); assay: Post-emergence glasshouse herbicide test; conditions: post-emergence (sprayed after 8 days cultivation), 1000 g/h, evaluated after 13 days, five point scale
Procedure: as §1

[3] = test system: Ipomoea hederacea (IPOHE); assay: Post-emergence glasshouse herbicide test; conditions: post-emergence (sprayed after 8 days cultivation), 1000 g/h, evaluated after 13 days, five point scale
Procedure: as §1

[4] = test system: Lolium perenne (LOLPE); assay: Post-emergence glasshouse herbicide test; conditions: post-emergence (sprayed after 8 days cultivation), 1000 g/h, evaluated after 13 days, five point scale
Procedure: as §1

[5] = test system: Setaria faberi (SETFA); assay: Post-emergence glasshouse herbicide test; conditions: post-emergence (sprayed after 8 days cultivation), 1000 g/h, evaluated after 13 days, five point scale
Procedure: as §1

[6] = test system: Solanum nigrum (SOLNI); assay: Post-emergence glasshouse herbicide test; conditions: post-emergence (sprayed after 8 days cultivation), 1000 g/h, evaluated after 13 days, five point scale
Procedure: as §1

[7] = test system: Amaranthus retoflexus (AMARE); assay: Pre-emergence glasshouse herbicide test; conditions: pre-emergence (sprayed after one day cultivation), 1000 g/h, evaluated after 13 days, five point scale
Procedure: as §1

[8] = test system: Echinochloa crus-galli (ECHCG); assay: Pre-emergence glasshouse herbicide test; conditions: pre-emergence (sprayed after one day cultivation), 1000 g/h, evaluated after 13 days, five point scale
Procedure: as §1

[9] = test system: Ipomoea hederacea (IPOHE); assay: Pre-emergence glasshouse herbicide test; conditions: pre-emergence (sprayed after one day cultivation), 1000 g/h, evaluated after 13 days, five point scale
Procedure: as §1

[10] = test system: Lolium perenne (LOLPE); assay: Pre-emergence glasshouse herbicide test; conditions: pre-emergence (sprayed after one day cultivation), 1000 g/h, evaluated after 13 days, five point scale
Procedure: as §1

[11] = test system: Setaria faberi (SETFA); assay: Pre-emergence glasshouse herbicide test; conditions: pre-emergence (sprayed after one day cultivation), 1000 g/h, evaluated after 13 days, five point scale
Procedure: as §1

[12] = test system: Solanum nigrum (SOLNI); assay: Pre-emergence glasshouse herbicide test; conditions: pre-emergence (sprayed after one day cultivation), 1000 g/h, evaluated after 13 days, five point scale
Procedure: as §1

Structure (SMILES): Cn1nnnc1NC(=O)c1nn(C)c(=O)c(-c2ccc(Cl)c(Cl)c2)c1Cl [Compound 1.019]
- percentage damage caused to the plant, AMARE, POST Application [1]: 3 (3=40-59%)
- percentage damage caused to the plant, ECHCG, POST Application [2]: 5 (5=80-100%)
- percentage damage caused to the plant, IPOHE, POST Application [3]: 4 (4=60-79%)
- percentage damage caused to the plant, LOLPE, POST Application [4]: 5 (5=80-100%)
- percentage damage caused to the plant, SETFA, POST Application [5]: 5 (5=80-100%)
- percentage damage caused to the plant, SOLNI, POST Application [6]: 5 (5=80-100%)
- percentage damage caused to the plant, AMARE, PRE Application [7]: 5 (5=80-100%)
- percentage damage caused to the plant, ECHCG, PRE Application [8]: 5 (5=80-100%)
- percentage damage caused to the plant, IPOHE, PRE Application [9]: 3 (3=40-59%)
- percentage damage caused to the plant, LOLPE, PRE Application [10]: 5 (5=80-100%)
- percentage damage caused to the plant, SETFA, PRE Application [11]: 5 (5=80-100%)
- percentage damage caused to the plant, SOLNI, PRE Application [12]: 5 (5=80-100%)

Structure (SMILES): Cc1ccc(C)c(-c2c(Cl)c(C(=O)Nc3nnnn3C)nn(C)c2=O)c1 [Compound 1.020]
- percentage damage caused to the plant, AMARE, POST Application [1]: 5 (5=80-100%)
- percentage damage caused to the plant, ECHCG, POST Application [2]: 5 (5=80-100%)
- percentage damage caused to the plant, IPOHE, POST Application [3]: 5 (5=80-100%)
- percentage damage caused to the plant, LOLPE, POST Application [4]: 5 (5=80-100%)
- percentage damage caused to the plant, SETFA, POST Application [5]: 5 (5=80-100%)
- percentage damage caused to the plant, SOLNI, POST Application [6]: 5 (5=80-100%)
- percentage damage caused to the plant, AMARE, PRE Application [7]: 5 (5=80-100%)
- percentage damage caused to the plant, ECHCG, PRE Application [8]: 5 (5=80-100%)
- percentage damage caused to the plant, IPOHE, PRE Application [9]: 5 (5=80-100%)
- percentage damage caused to the plant, LOLPE, PRE Application [10]: 5 (5=80-100%)
- percentage damage caused to the plant, SETFA, PRE Application [11]: 5 (5=80-100%)
- percentage damage caused to the plant, SOLNI, PRE Application [12]: 5 (5=80-100%)

Structure (SMILES): Cn1nnnc1NC(=O)c1nn(C)c(=O)c(-c2ccc(C(F)(F)F)cc2)c1Cl [Compound 1.023]
- percentage damage caused to the plant, AMARE, POST Application [1]: 2 (2=20-39%)
- percentage damage caused to the plant, ECHCG, POST Application [2]: 5 (5=80-100%)
- percentage damage caused to the plant, IPOHE, POST Application [3]: 2 (2=20-39%)
- percentage damage caused to the plant, LOLPE, POST Application [4]: 5 (5=80-100%)
- percentage damage caused to the plant, SETFA, POST Application [5]: 5 (5=80-100%)
- percentage damage caused to the plant, SOLNI, POST Application [6]: 5 (5=80-100%)
- percentage damage caused to the plant, AMARE, PRE Application [7]: 4 (4=60-79%)
- percentage damage caused to the plant, ECHCG, PRE Application [8]: 5 (5=80-100%)
- percentage damage caused to the plant, IPOHE, PRE Application [9]: 2 (2=20-39%)
- percentage damage caused to the plant, LOLPE, PRE Application [10]: 5 (5=80-100%)
- percentage damage caused to the plant, SETFA, PRE Application [11]: 5 (5=80-100%)
- percentage damage caused to the plant, SOLNI, PRE Application [12]: 5 (5=80-100%)

Structure (SMILES): Cn1nnnc1NC(=O)c1nn(C)c(=O)c(-c2cccc(C(F)(F)F)c2)c1Cl [Compound 1.030]
- percentage damage caused to the plant, AMARE, POST Application [1]: 5 (5=80-100%)
- percentage damage caused to the plant, ECHCG, POST Application [2]: 5 (5=80-100%)
- percentage damage caused to the plant, IPOHE, POST Application [3]: 4 (4=60-79%)
- percentage damage caused to the plant, LOLPE, POST Application [4]: 5 (5=80-100%)
- percentage damage caused to the plant, SETFA, POST Application [5]: 5 (5=80-100%)
- percentage damage caused to the plant, SOLNI, POST Application [6]: 5 (5=80-100%)
- percentage damage caused to the plant, AMARE, PRE Application [7]: 5 (5=80-100%)
- percentage damage caused to the plant, ECHCG, PRE Application [8]: 5 (5=80-100%)
- percentage damage caused to the plant, IPOHE, PRE Application [9]: 2 (2=20-39%)
- percentage damage caused to the plant, LOLPE, PRE Application [10]: 5 (5=80-100%)
- percentage damage caused to the plant, SETFA, PRE Application [11]: 5 (5=80-100%)
- percentage damage caused to the plant, SOLNI, PRE Application [12]: 5 (5=80-100%)

Structure (SMILES): CCOc1c(C(=O)Nc2nnnn2C)nn(C)c(=O)c1-c1ccccc1 [Compound 1.031]
- percentage damage caused to the plant, AMARE, POST Application [1]: 5 (5=80-100%)
- percentage damage caused to the plant, ECHCG, POST Application [2]: 5 (5=80-100%)
- percentage damage caused to the plant, IPOHE, POST Application [3]: 5 (5=80-100%)
- percentage damage caused to the plant, LOLPE, POST Application [4]: 4 (4=60-79%)
- percentage damage caused to the plant, SETFA, POST Application [5]: 5 (5=80-100%)
- percentage damage caused to the plant, SOLNI, POST Application [6]: 5 (5=80-100%)
- percentage damage caused to the plant, AMARE, PRE Application [7]: 5 (5=80-100%)
- percentage damage caused to the plant, ECHCG, PRE Application [8]: 5 (5=80-100%)
- percentage damage caused to the plant, IPOHE, PRE Application [9]: 5 (5=80-100%)
- percentage damage caused to the plant, LOLPE, PRE Application [10]: 3 (3=40-59%)
- percentage damage caused to the plant, SETFA, PRE Application [11]: 5 (5=80-100%)
- percentage damage caused to the plant, SOLNI, PRE Application [12]: 5 (5=80-100%)
